Experiment [1] relates to SOCE (store operated calcium entry) in CHO cells. Description: Assay of SOCE (store operated calcium entry)-inhibiting action. Format: cell-based, Chinese hamster. As to conditions: Cricetulus griseus, CHO, CHO cells, thapsigargin, read-out: SOCE level (percentage of inhibition); for inhibition at 10 µM: test compound 10 μmol; for inhibition at 30 µM: test compound 30 μmol; for inhibition at 100 µM: test compound 100 μmol. In short, it runs like this: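 CHO cells in calcium-free BSS received compound, then 1 μM thapsigargin 2 min later to deplete stores; after 9 min, 2 mM calcium chloride (final) added. Percent inhibition of the rise in intracellular calcium determined at various compound concentrations.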

The subject of experiment [2] is IICR (IP3 induced calcium release) in CHO cells. Description: Assay of IICR (IP3 induced calcium release)-inhibiting action. The format is cell-based, Chinese hamster. As to conditions: Cricetulus griseus, CHO, CHO cells, 10 μM ATP, read-out: IICR level (percentage of inhibition); for inhibition at 10 µM: test compound 10 μmol; for inhibition at 30 µM: test compound 30 μmol; for inhibition at 100 µM: test compound 100 μmol. In outline:
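Inhibition (%) of the intracellular calcium increase triggered by 10 μM ATP, measured in CHO cells in BSS with calcium. Compound given 1 min after the buffer exchange and 2 min before ATP; values reported per compound concentration.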

We go through nine compounds from patent US8937091B2 (Japan Science and Technology Agency, priority 2009, dated 2015).

Usually inhibition stands for the drop in the measured response relative to a control, in per cent. For `CCC(CO)(CO)NCCC(=O)c1ccc(Br)s1` [Example 365, 2-(N-1,1-bishydroxymethylpropyl)aminoethyl-5-bromo-2-thienylketone], in experiment [1], the inhibition at 10 µM amounted to 0%, the inhibition at 30 µM is 0% and the inhibition at 100 µM stood at 10%. In experiment [2], the inhibition at 10 µM worked out at 0%, the inhibition at 30 µM is 0% and the inhibition at 100 µM is 70%.
`NCCSSCCN(CCC(=O)c1ccc(Cl)s1)CCC(=O)c1ccc(Cl)s1` [Example 366, N,N-bis(2-(5-chloro-2-thiophenoyl)ethyl)cystamine]: in experiment [1], the inhibition at 10 µM was found to be 6%, the inhibition at 30 µM turned out to be 0% and the inhibition at 100 µM was 90%. Moreover, in experiment [2], the inhibition at 10 µM turned out to be 0%, the inhibition at 30 µM is 0% and the inhibition at 100 µM amounted to 70%.
Turning to `NCCSSCCN(CCC(=O)c1ccc(Br)cc1)CCC(=O)c1ccc(Br)cc1` [Example 367, N,N-bis(2-(4-bromo-benzoyl)ethyl)cystamine], in experiment [1], the inhibition at 10 µM stood at 0%, the inhibition at 30 µM worked out at 17% and the inhibition at 100 µM was determined as 96%. Besides, in experiment [2], the inhibition at 10 µM worked out at 0%, the inhibition at 30 µM worked out at 0% and the inhibition at 100 µM is 70%.
Regarding `CCCCN(CCC(=O)c1ccc(Br)s1)Cc1ccccc1` [Example 373, 2-(N-butyl-N-benzyl)aminoethyl-5-bromo-2-thienylketone], in experiment [1], the inhibition at 10 µM was 100%, the inhibition at 30 µM worked out at 28% and the inhibition at 100 µM is 65%. Also, in experiment [2], the inhibition at 10 µM is 0%, the inhibition at 30 µM stood at 36% and the inhibition at 100 µM was determined as 0%.
Turning to `CCCCN(CCC(=O)c1ccc(Cl)s1)Cc1ccccc1` [Example 374, 2-(N-butyl-N-benzyl)aminoethyl-5-chloro-2-thienylketone], in experiment [1], the inhibition at 10 µM stood at 0%, the inhibition at 30 µM was found to be 0% and the inhibition at 100 µM worked out at 53%. In experiment [2], the inhibition at 10 µM is 0%, the inhibition at 30 µM was determined as 8% and the inhibition at 100 µM was 0%.
Take `CCCCN(CCC(=O)c1ccc(Br)cc1)Cc1ccccc1` [Example 375, 2-(N-butyl-N-benzyl)aminoethyl-4-bromophenylketone]: in experiment [1], the inhibition at 10 µM came out at 4%, the inhibition at 30 µM was 0% and the inhibition at 100 µM was determined as 40%. In experiment [2], the inhibition at 10 µM was determined as 0%, the inhibition at 30 µM was determined as 33% and the inhibition at 100 µM is 0%.
As for `CCCCN(CCC(=O)c1ccncc1)Cc1ccccc1` [Example 376, 2-(N-butyl-N-benzyl)aminoethyl-4-pyridylketone], in experiment [1], the inhibition at 10 µM is 21%, the inhibition at 30 µM came out at 0% and the inhibition at 100 µM was determined as 27%. Besides, in experiment [2], the inhibition at 10 µM worked out at 18%, the inhibition at 30 µM stood at 84% and the inhibition at 100 µM is 51%.
With `CCCCN(CCC(=O)c1ccco1)Cc1ccccc1` [Example 377, 2-(N-butyl-N-benzyl)aminoethyl-2-furylketone], in experiment [1], the inhibition at 10 µM is 21%, the inhibition at 30 µM came out at 0% and the inhibition at 100 µM worked out at 27%. In experiment [2], the inhibition at 10 µM is 22%, the inhibition at 30 µM worked out at 20% and the inhibition at 100 µM was 36%.
With `CCCCN(CCC(=O)c1ccc2ccccc2c1)Cc1ccccc1` [Example 378, 2-(N-butyl-N-benzyl)aminoethyl-2-naphthylketone], in experiment [1], the inhibition at 10 µM worked out at 0%, the inhibition at 30 µM was 0% and the inhibition at 100 µM worked out at 41%. In experiment [2], the inhibition at 10 µM was found to be 50%, the inhibition at 30 µM came out at 24% and the inhibition at 100 µM is 46%.
